{
  "source": "patent US20240109917A1",
  "about": "(ACTELION PHARMACEUTICALS LTD, priority 2020, published 2024)",
  "key": {"[1]": {"target": "Tb-labeled inactive PDGFRβ (Homo sapiens (Human), UniProt P09619)", "sequence (P09619 33-1106)": "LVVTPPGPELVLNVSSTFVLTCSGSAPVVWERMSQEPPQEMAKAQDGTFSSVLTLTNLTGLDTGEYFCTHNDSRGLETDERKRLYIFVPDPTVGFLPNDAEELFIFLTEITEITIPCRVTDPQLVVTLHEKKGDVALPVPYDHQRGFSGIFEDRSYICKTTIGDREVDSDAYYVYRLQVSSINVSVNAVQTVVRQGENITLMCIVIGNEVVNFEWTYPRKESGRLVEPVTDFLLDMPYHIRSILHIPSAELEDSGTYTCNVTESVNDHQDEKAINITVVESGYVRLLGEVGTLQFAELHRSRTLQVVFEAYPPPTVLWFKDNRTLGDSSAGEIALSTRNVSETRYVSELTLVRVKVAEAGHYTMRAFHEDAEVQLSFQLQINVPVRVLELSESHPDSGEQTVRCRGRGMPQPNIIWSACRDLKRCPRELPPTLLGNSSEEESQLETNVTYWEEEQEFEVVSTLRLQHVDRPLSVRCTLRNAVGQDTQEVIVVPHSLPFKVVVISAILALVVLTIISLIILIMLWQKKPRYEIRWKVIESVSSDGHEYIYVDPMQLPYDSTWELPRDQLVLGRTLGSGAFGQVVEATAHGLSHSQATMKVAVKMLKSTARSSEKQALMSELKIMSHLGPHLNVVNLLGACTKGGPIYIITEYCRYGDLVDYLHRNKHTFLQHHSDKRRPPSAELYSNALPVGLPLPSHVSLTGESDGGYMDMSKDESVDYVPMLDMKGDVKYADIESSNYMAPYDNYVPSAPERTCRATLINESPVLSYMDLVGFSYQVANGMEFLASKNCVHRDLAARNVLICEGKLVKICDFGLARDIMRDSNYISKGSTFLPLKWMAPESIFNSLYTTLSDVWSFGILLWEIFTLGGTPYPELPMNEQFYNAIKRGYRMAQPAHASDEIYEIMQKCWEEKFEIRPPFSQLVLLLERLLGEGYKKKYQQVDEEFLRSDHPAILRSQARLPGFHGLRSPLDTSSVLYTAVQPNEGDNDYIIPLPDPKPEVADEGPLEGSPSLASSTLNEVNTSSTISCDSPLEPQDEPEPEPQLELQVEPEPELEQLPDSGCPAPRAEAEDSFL", "assay": "PDGFRβ LanthaScreen Assay", "type": "binding", "settings": "read-out: PDGFR Lantha IC50"}, "PDGFRβ": {"target": "PDGFRβ (Rattus norvegicus (Rat), UniProt Q05030)", "sequence (Q05030 32-1097)": "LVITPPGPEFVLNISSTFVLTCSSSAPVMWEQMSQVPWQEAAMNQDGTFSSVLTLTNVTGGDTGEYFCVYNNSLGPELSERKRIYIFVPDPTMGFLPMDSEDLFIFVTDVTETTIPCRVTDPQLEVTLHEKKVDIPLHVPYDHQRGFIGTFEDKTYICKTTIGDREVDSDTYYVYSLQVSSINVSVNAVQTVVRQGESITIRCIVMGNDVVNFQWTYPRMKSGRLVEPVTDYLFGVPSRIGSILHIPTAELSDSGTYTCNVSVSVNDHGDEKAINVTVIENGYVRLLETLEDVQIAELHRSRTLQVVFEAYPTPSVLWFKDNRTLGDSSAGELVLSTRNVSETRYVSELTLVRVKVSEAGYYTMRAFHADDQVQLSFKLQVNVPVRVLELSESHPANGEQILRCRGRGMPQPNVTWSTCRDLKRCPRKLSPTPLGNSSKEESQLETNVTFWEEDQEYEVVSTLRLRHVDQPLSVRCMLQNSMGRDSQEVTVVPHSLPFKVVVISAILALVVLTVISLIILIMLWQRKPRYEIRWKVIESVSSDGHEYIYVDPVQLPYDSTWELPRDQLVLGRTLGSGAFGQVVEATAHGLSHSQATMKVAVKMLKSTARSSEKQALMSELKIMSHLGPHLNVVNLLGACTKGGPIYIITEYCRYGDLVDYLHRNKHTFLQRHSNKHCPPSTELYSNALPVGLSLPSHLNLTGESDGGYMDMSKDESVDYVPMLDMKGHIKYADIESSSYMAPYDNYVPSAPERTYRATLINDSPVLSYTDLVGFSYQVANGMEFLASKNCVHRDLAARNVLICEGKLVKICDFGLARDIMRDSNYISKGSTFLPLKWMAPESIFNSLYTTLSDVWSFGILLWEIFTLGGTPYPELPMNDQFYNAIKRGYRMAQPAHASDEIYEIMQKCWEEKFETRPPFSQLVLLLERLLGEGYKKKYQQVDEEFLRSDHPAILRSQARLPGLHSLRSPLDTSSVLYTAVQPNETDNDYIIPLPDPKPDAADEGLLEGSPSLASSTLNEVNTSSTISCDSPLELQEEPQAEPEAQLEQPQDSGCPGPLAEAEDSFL", "assay": "PDGFRβ Cellular Assay (PDGFRb P-Y751 HTRF in A10 cells stimulated with PDGF-BB)", "type": "cell-based", "in_short": "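Rat A10 cells, plated overnight, were treated with compound for 3 hours, then stimulated with PDGF-BB (working stock 100 ng/mL in 10% FBS medium). After lysis, PDGFRβ P-Y751 was detected by HTRF.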"}},
  "note": "Where two headings read alike, the source gives them in different places.",
  "data": [
    {"smiles": "Cc1ncc(NC(=O)[C@@H]2CCCN3CCCC[C@H]23)cc1NC(=O)c1cnn2cc(-c3cnn(C)c3)sc12", "note": "[Example 308, 2-(1-methyl-1H-pyrazol-4-yl)-N-(2-methyl-5-((1R,9aR)-octahydro-2H-quinolizine-1-carboxamido)pyridin-3-yl)pyrazolo[5,1-b]thiazole-7-carboxamide]", "values": [
      {"measurement": "IC50", "setting": "[1]", "value": 710, "unit": "nM"},
      {"measurement": "IC50", "setting": "PDGFRβ; read-out: PDGFR Cellular IC50", "value": 311, "unit": "nM"}
    ]},
    {"smiles": "Cc1ncc(NC(=O)CN2CC(C)(C)C2)cc1NC(=O)c1cnn2cc(-c3cnn(C(F)(F)F)c3)sc12", "note": "[Example 269, N-(5-(2-(3,3-dimethylazetidin-1-yl)acetamido)-2-methylpyridin-3-yl)-2-(1-(trifluoromethyl)-1H-pyrazol-4-yl)pyrazolo[5,1-b]thiazole-7-carboxamide]", "values": [
      {"measurement": "IC50", "setting": "[1]", "value": 71.2, "unit": "nM"},
      {"measurement": "IC50", "setting": "PDGFRβ; read-out: PDGFR Cellular IC50", "value": 17.5, "unit": "nM"}
    ]},
    {"smiles": "Cc1ncc(NC(=O)CN(C)C2CCOCC2)cc1NC(=O)c1cnn2cc(-c3cnn(CC(N)=O)c3)sc12", "note": "[Example 300, 2-(1-(2-amino-2-oxoethyl)-1H-pyrazol-4-yl)-N-(2-methyl-5-(2-(methyl(tetrahydro-2H-pyran-4-yl)amino)acetamido)pyridin-3-yl)pyrazolo[5,1-b]thiazole-7-carboxamide]", "values": [
      {"measurement": "IC50", "setting": "[1]", "value": 12.4, "unit": "nM"},
      {"measurement": "IC50", "setting": "PDGFRβ; read-out: PDGFR Cellular IC50", "value": 1010, "unit": "nM"}
    ]},
    {"smiles": "COCCn1cc(-c2cn3ncc(C(=O)Nc4cc(NC(=O)CN5CCC6(CC6)C5)cnc4C)c3s2)cn1", "note": "[Example 326, N-(5-(2-(5-azaspiro[2.4]heptan-5-yl)acetamido)-2-methylpyridin-3-yl)-2-(1-(2-methoxyethyl)-1H-pyrazol-4-yl)pyrazolo[5,1-b]thiazole-7-carboxamide]", "values": [
      {"measurement": "IC50", "setting": "[1]", "value": 3.7, "unit": "nM"},
      {"measurement": "IC50", "setting": "PDGFRβ; PDGFR Cellular IC50", "value": 3, "unit": "nM"}
    ]},
    {"smiles": "Cc1ncc(NC(=O)CN2CC(C)(C)C2)cc1NC(=O)c1cnn2cc(-c3cnc4[nH]ncc4c3)sc12", "note": "[Example 288, N-(5-(2-(3,3-dimethylazetidin-1-yl)acetamido)-2-methylpyridin-3-yl)-2-(1H-pyrazolo[3,4-b]pyridin-5-yl)pyrazolo[5,1-b]thiazole-7-carboxamide]", "values": [
      {"measurement": "IC50", "setting": "[1]", "value": 11.5, "unit": "nM"},
      {"measurement": "IC50", "setting": "PDGFRβ; read-out: PDGFR Cellular IC50", "value": 13.5, "unit": "nM"}
    ]},
    {"smiles": "Cc1ncc(NC(=O)CN2CCc3ccncc3C2)cc1NC(=O)c1cnn2cc(-c3cnn(C)c3)sc12", "note": "[Example 23, N-(5-(2-(3,4-dihydro-2,7-naphthyridin-2 (1H)-yl)acetamido)-2-methylpyridin-3-yl)-2-(1-methyl-1H-pyrazol-4-yl)pyrazolo[5,1-b]thiazole-7-carboxamide]", "values": [
      {"measurement": "IC50", "setting": "[1]", "value": 1.3, "unit": "nM"},
      {"measurement": "IC50", "setting": "PDGFRβ; PDGFR Cellular IC50", "value": 67.7, "unit": "nM"}
    ]},
    {"smiles": "COc1ncccc1-c1cn2ncc(C(=O)Nc3cc(NC(=O)CN4CCOCC45CCC5)cnc3C)c2s1", "note": "[Example 310, N-(5-(2-(8-oxa-5-azaspiro[3.5]nonan-5-yl)acetamido)-2-methylpyridin-3-yl)-2-(2-methoxypyridin-3-yl)pyrazolo[5,1-b]thiazole-7-carboxamide]", "values": [
      {"measurement": "IC50", "setting": "[1]", "value": 1.4, "unit": "nM"},
      {"measurement": "IC50", "setting": "PDGFRβ; read-out: PDGFR Cellular IC50", "value": 3.3, "unit": "nM"}
    ]},
    {"smiles": "Cc1ncc(NC(=O)CN2CC(C)(C)C2)cc1NC(=O)c1cnn2cc(-c3ccsc3)sc12", "note": "[Example 282, N-(5-(2-(3,3-dimethylazetidin-1-yl)acetamido)-2-methylpyridin-3-yl)-2-(thiophen-3-yl)pyrazolo[5,1-b]thiazole-7-carboxamide]", "values": [
      {"measurement": "IC50", "setting": "[1]", "value": 1.2, "unit": "nM"},
      {"measurement": "IC50", "setting": "PDGFRβ; read-out: PDGFR Cellular IC50", "value": 0.9, "unit": "nM"}
    ]},
    {"smiles": "CNC(=O)c1cc(-c2cn3ncc(C(=O)Nc4cc(NC(=O)CN5CC(C)(C)C5)cnc4C)c3s2)ccn1", "note": "[Example 274, N-(5-(2-(3,3-dimethylazetidin-1-yl)acetamido)-2-methylpyridin-3-yl)-2-(2-(methylcarbamoyl)pyridin-4-yl)pyrazolo[5,1-b]thiazole-7-carboxamide]", "values": [
      {"measurement": "IC50", "setting": "[1]", "value": 21.4, "unit": "nM"},
      {"measurement": "IC50", "setting": "PDGFRβ; read-out: PDGFR Cellular IC50", "value": 51.8, "unit": "nM"}
    ]},
    {"smiles": "CC(=O)Nc1cncc(-c2cn3ncc(C(=O)Nc4cc(NC(=O)CN5CC(C)(C)C5)cnc4C)c3s2)c1", "note": "[Example 277, 2-(5-acetamidopyridin-3-yl)-N-(5-(2-(3,3-dimethylazetidin-1-yl)acetamido)-2-methylpyridin-3-yl)pyrazolo[5,1-b]thiazole-7-carboxamide]", "values": [
      {"measurement": "IC50", "setting": "[1]", "value": 5.7, "unit": "nM"},
      {"measurement": "IC50", "setting": "PDGFRβ; read-out: PDGFR Cellular IC50", "value": 142, "unit": "nM"}
    ]},
    {"smiles": "COc1ncccc1-c1cn2ncc(C(=O)Nc3cc(NC(=O)OCC(C)N4CCCC4)cnc3C)c2s1", "note": "(centres unmarked) [Example 255, 2-(pyrrolidin-1-yl)propyl (5-(2-(2-methoxypyridin-3-yl)pyrazolo[5,1-b]thiazole-7-carboxamido)-6-methylpyridin-3-yl)carbamate]", "values": [
      {"measurement": "IC50", "setting": "[1]", "value": 1.9, "unit": "nM"},
      {"measurement": "IC50", "setting": "PDGFRβ; read-out: PDGFR Cellular IC50", "value": 9.3, "unit": "nM"}
    ]},
    {"smiles": "COc1ncccc1-c1cn2ncc(C(=O)Nc3cc(NC(=O)CN4CCC5(CC5)C4)cnc3C)c2s1", "note": "[Example 324, N-(5-(2-(5-azaspiro[2.4]heptan-5-yl)acetamido)-2-methylpyridin-3-yl)-2-(2-methoxypyridin-3-yl)pyrazolo[5,1-b]thiazole-7-carboxamide]", "values": [
      {"measurement": "IC50", "setting": "[1]", "value": 0.7, "unit": "nM"},
      {"measurement": "IC50", "setting": "PDGFRβ; read-out: PDGFR Cellular IC50", "value": 1.1, "unit": "nM"}
    ]},
    {"smiles": "Cc1ncc(NC(=O)CN2CC(C)(C)C2)cc1NC(=O)c1cnn2cc(-c3cnn(C4CS(=O)(=O)C4)c3)sc12", "note": "[Example 262, N-(5-(2-(3,3-dimethylazetidin-1-yl)acetamido)-2-methylpyridin-3-yl)-2-(1-(1,1-dioxidothietan-3-yl)-1H-pyrazol-4-yl)pyrazolo[5,1-b]thiazole-7-carboxamide]", "values": [
      {"measurement": "IC50", "setting": "[1]", "value": 6.1, "unit": "nM"},
      {"measurement": "IC50", "setting": "PDGFRβ; read-out: PDGFR Cellular IC50", "value": 36.9, "unit": "nM"}
    ]},
    {"smiles": "Cc1ncc(NC(=O)CN2CC(C)(C)C2)cc1NC(=O)c1cnn2cc(-c3ccc(C4(O)COC4)cc3)sc12", "note": "[Example 272, N-(5-(2-(3,3-dimethylazetidin-1-yl)acetamido)-2-methylpyridin-3-yl)-2-(4-(3-hydroxyoxetan-3-yl)phenyl)pyrazolo[5,1-b]thiazole-7-carboxamide]", "values": [
      {"measurement": "IC50", "setting": "[1]", "value": 1.4, "unit": "nM"},
      {"measurement": "IC50", "setting": "PDGFRβ; read-out: PDGFR Cellular IC50", "value": 5.6, "unit": "nM"}
    ]},
    {"smiles": "Cc1ncc(NC(=O)OC[C@@H]2CCCN2C)cc1NC(=O)c1cnn2cc(-c3cc[nH]c3)sc12", "note": "[Example 258, (S)-(1-methylpyrrolidin-2-yl)methyl (5-(2-(1H-pyrrol-3-yl)pyrazolo[5,1-b]thiazole-7-carboxamido)-6-methylpyridin-3-yl)carbamate]", "values": [
      {"measurement": "IC50", "setting": "[1]", "value": 4.2, "unit": "nM"},
      {"measurement": "IC50", "setting": "PDGFRβ; read-out: PDGFR Cellular IC50", "value": 48.7, "unit": "nM"}
    ]},
    {"smiles": "Cc1ncc(NC(=O)OC[C@@H]2CCCN2C)cc1NC(=O)c1cnn2cc(-c3cccnc3O)sc12", "note": "[Example 256, (S)-(1-methylpyrrolidin-2-yl)methyl (5-(2-(2-hydroxypyridin-3-yl)pyrazolo[5,1-b]thiazole-7-carboxamido)-6-methylpyridin-3-yl)carbamate]", "values": [
      {"measurement": "IC50", "setting": "[1]", "value": 14.9, "unit": "nM"},
      {"measurement": "IC50", "setting": "PDGFRβ; PDGFR Cellular IC50", "value": 1340, "unit": "nM"}
    ]},
    {"smiles": "Cc1ncc(NC(=O)CN2CCCC(O)C2)cc1NC(=O)c1cnn2cc(-c3cnn(C)c3)sc12", "note": "(centres unmarked) [Example 303, N-(5-(2-(3-hydroxypiperidin-1-yl)acetamido)-2-methylpyridin-3-yl)-2-(1-methyl-1H-pyrazol-4-yl)pyrazolo[5,1-b]thiazole-7-carboxamide]", "values": [
      {"measurement": "IC50", "setting": "[1]", "value": 5.8, "unit": "nM"},
      {"measurement": "IC50", "setting": "PDGFRβ; read-out: PDGFR Cellular IC50", "value": 121, "unit": "nM"}
    ]},
    {"smiles": "COc1ncccc1-c1cn2ncc(C(=O)Nc3cc(C(=O)NCCN4CCC[C@@H]4C)cnc3C)c2s1", "note": "[Example 301, (S)-2-(2-methoxypyridin-3-yl)-N-(2-methyl-5-((2-(2-methylpyrrolidin-1-yl)ethyl)carbamoyl)pyridin-3-yl)pyrazolo[5,1-b]thiazole-7-carboxamide]", "values": [
      {"measurement": "IC50", "setting": "[1]", "value": 1.4, "unit": "nM"},
      {"measurement": "IC50", "setting": "PDGFRβ; read-out: PDGFR Cellular IC50", "value": 4.3, "unit": "nM"}
    ]},
    {"smiles": "Cc1ncc(NC(=O)CCN2CCCC2(C)C)cc1NC(=O)c1cnn2cc(-n3ncc4cccnc43)sc12", "note": "[Example 260, N-(5-(3-(2,2-dimethylpyrrolidin-1-yl)propanamido)-2-methylpyridin-3-yl)-2-(1H-pyrazolo[3,4-b]pyridin-1-yl)pyrazolo[5,1-b]thiazole-7-carboxamide]", "values": [
      {"measurement": "IC50", "setting": "[1]", "value": 2.1, "unit": "nM"},
      {"measurement": "IC50", "setting": "PDGFRβ; PDGFR Cellular IC50", "value": 3.1, "unit": "nM"}
    ]}
  ]
}
